Bounds are passed on as bounds.

For data set [1], the target named is Tyrosine-protein kinase JAK2 (Homo sapiens, UniProt O60674). Kind of data set: Inhibition of GST-fused JAK2 (808 to 1132 residues)(unknown origin) using Carboxyfluorescein-Ahx-GGEEEEYFELVKKKK peptide as substrate incubated for 30 mins in presence of ATP by caliper microfluidic mobility shift assay.
Data set [2] has as its target T1, Tyrosine-protein kinase JAK3 (Homo sapiens, UniProt P52333).
T1 sequence (P52333 whole entry): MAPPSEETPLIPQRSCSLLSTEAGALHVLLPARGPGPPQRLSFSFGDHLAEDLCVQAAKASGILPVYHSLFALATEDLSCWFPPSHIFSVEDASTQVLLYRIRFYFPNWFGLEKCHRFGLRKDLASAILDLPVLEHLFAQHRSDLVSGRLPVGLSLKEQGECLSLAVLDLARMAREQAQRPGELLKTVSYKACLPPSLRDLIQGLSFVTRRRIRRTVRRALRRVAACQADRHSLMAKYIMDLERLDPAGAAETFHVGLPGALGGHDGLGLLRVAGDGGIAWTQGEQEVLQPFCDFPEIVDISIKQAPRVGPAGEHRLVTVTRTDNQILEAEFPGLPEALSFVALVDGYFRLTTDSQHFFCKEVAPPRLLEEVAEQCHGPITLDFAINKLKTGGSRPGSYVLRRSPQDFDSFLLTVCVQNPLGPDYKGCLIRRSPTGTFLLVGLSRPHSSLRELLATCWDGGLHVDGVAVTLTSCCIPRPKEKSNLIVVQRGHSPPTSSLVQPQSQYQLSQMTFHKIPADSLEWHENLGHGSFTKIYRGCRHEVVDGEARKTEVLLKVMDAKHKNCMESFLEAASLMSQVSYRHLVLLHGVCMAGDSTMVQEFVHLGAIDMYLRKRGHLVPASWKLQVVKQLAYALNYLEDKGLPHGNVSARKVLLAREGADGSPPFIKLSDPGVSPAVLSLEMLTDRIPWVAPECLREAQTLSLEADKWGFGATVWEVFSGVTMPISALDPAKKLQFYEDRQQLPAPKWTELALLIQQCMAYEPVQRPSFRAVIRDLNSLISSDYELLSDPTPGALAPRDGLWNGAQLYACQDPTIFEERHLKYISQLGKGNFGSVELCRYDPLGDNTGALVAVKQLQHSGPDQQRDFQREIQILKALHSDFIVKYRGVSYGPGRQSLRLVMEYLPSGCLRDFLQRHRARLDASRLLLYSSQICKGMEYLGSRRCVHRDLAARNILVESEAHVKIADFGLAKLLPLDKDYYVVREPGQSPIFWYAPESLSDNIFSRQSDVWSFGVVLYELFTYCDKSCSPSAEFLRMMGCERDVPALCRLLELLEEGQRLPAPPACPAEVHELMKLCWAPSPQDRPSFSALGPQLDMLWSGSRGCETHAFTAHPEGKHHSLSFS
Kind of data set: Inhibition of GST-fused JAK3 (811 to 1124 residues)(unknown origin) using Carboxyfluorescein-Ahx-GGEEEEYFELVKKKK peptide as substrate incubated for 30 mins in presence of ATP by caliper microfluidic mobility shift assay.

For data set [3], the target named is T2, JAK3/JAK1 (Homo sapiens, UniProt P23458+P52333). As to the kind of experiment: Inhibition of JAK1/3-mediated STAT5 phosphorylation in human M07E cells preincubated for 30 mins followed by IL-15 stimulation measured after 15 mins by flow cytometry. Type of data set: cell-based. For orientation: A flow cytometer gives signals particle by particle.
The next data set concerns the target JAK2/JAK1 (Homo sapiens, UniProt O60674+P23458). Kind of data set: Inhibition of JAK1/2-mediated STAT1 phosphorylation in human M07E cells preincubated for 30 mins followed by IFN-alpha stimulation measured after 15 mins by flow cytometry. Type of data set: cell-based.
Data set [4] has as its target T2, JAK3/JAK1. As to the kind of experiment: Inhibition of JAK1/3-mediated STAT5 phosphorylation in human whole blood incubated for 30 mins followed by IL-2 addition measured after 15 mins by flow cytometry. The data set is classed as tissue-based.
A short description of data set [5]: Lipophilicity, LogD of compound. The following applies: octanol/water. The data set is classed as physicochemical.
The nature of data set [6]: Saturation solubility of compound in PEG400/transcutol/benzyl alcohol/water mixture using crystalline form of sample. The data set is classed as physicochemical.
Data set [7] is described as follows: Drug penetration in fresh human skin explant using Franz diffusion cell model assessed as concentration of 2-(6-((5-carbamoyl-4-((2-methoxyphenyl)amino)pyridin-2-yl)amino)pyridin-3-yl)acetic acid metabolite in receiver fluid at 3 % administered topically preincubated overnight followed by fresh media replacement in receiver fluid without compound and subsequently stimulated with IL-4/IL-13 measured after 24 hrs by LC-MS/MS analysis. The data set is classed as ADME, tissue-based, Skin of body. The following applies: topical_or_ocular.

For data set [8], the target named is T3, Eukaryotic translation initiation factor 2-alpha kinase 3 (Homo sapiens, UniProt Q9NZJ5).
T3 sequence (Q9NZJ5 whole entry): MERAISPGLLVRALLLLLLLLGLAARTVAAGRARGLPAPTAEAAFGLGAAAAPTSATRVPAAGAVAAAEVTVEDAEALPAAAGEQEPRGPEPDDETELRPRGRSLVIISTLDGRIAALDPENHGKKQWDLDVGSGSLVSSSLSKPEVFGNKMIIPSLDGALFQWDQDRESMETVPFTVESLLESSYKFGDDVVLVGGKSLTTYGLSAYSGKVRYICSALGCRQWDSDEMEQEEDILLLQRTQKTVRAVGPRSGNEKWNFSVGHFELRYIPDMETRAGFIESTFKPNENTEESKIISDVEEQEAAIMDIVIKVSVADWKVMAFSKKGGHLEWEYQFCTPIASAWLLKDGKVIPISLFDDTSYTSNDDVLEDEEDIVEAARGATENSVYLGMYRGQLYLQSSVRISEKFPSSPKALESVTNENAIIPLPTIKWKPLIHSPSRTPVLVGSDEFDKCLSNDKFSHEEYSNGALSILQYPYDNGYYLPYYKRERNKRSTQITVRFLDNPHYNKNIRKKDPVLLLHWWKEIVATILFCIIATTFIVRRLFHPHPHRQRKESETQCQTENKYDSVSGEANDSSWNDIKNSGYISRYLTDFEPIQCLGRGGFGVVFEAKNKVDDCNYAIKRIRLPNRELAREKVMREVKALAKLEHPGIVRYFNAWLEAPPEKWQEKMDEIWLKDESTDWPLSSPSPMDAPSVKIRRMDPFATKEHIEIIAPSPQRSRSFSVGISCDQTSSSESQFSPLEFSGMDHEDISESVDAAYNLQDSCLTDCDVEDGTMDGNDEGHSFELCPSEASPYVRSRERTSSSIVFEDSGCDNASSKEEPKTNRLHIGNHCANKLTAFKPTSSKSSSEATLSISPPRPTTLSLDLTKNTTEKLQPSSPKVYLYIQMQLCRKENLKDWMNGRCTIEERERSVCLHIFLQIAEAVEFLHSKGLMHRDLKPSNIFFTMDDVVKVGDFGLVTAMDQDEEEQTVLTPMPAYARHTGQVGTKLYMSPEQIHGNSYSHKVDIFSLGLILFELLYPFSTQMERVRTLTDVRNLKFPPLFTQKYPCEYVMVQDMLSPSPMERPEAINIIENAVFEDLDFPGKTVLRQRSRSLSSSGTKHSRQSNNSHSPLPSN
As to the kind of experiment: Inhibition of EIF2AK3 (unknown origin).

The nature of data set [9]: Drug metabolism in rat assessed as excretion of 2-(6-((5-carbamoyl-4-((2-methoxyphenyl)amino)pyridin-2-yl)amino)pyridin-3-yl)acetic acid metabolite by measuring half life. The data set is classed as ADME.

T2 sequence (P23458 whole entry, one chain of several): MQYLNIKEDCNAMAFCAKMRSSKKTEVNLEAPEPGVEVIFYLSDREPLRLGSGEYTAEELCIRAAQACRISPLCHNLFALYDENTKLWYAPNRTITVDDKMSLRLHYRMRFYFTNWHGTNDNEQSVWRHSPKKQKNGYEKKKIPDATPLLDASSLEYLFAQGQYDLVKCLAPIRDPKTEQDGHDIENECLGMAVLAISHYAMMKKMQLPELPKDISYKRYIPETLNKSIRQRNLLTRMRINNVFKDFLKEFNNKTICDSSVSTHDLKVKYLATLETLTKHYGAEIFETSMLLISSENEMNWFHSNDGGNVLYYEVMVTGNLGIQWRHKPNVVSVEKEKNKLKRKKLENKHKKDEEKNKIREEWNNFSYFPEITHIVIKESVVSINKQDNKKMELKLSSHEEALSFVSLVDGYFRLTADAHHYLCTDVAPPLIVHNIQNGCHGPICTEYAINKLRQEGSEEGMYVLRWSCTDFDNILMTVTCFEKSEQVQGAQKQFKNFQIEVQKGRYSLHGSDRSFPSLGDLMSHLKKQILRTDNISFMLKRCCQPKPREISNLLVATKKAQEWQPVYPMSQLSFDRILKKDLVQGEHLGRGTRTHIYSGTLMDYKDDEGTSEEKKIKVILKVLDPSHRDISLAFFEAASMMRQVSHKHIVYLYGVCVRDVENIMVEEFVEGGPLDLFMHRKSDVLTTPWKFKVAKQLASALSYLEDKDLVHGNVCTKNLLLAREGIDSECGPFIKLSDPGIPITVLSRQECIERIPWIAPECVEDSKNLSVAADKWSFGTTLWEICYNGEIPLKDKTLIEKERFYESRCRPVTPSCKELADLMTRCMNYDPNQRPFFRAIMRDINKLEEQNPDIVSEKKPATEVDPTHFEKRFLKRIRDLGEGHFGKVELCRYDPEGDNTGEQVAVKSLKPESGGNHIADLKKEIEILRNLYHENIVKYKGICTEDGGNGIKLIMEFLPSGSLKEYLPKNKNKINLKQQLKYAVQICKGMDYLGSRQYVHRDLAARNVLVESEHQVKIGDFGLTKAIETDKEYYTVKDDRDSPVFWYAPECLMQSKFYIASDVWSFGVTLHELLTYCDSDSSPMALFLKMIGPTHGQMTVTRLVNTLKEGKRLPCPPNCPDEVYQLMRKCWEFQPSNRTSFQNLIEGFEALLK
Chain of JAK2/JAK1 (P23458 whole entry): as the sequence (P23458 whole entry, one chain of several) above
Chain of JAK2/JAK1 (O60674 whole entry): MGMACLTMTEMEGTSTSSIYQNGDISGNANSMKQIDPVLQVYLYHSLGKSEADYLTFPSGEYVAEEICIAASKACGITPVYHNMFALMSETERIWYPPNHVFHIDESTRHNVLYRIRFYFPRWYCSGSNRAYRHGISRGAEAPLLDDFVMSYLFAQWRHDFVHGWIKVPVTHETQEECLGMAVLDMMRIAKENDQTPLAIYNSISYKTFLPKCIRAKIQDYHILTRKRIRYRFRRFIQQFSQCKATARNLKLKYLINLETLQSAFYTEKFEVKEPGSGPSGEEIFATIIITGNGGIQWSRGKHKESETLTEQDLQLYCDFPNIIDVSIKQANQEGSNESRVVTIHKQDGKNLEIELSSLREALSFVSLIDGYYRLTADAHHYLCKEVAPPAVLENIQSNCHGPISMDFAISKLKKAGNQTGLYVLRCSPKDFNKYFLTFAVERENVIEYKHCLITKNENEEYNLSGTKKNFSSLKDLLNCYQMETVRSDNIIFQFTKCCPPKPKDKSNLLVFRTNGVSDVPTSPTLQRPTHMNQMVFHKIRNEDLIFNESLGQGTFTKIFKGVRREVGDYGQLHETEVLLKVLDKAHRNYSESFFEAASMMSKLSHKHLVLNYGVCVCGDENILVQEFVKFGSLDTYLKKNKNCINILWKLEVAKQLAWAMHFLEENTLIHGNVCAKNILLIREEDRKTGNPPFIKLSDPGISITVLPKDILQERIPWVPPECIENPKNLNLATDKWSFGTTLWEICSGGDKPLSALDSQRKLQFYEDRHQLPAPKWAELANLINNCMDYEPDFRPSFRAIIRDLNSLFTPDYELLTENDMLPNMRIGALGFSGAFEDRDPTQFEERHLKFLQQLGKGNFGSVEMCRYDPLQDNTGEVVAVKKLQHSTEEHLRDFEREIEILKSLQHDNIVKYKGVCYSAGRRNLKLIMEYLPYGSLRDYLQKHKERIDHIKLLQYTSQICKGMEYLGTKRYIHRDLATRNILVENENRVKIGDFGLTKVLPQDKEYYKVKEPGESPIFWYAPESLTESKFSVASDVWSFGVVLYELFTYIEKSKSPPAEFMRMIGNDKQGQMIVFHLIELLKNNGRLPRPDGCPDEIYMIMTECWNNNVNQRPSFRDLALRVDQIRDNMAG
Chain of Tyrosine-protein kinase JAK2 (O60674 whole entry, the tested form may be a part): as the sequence (O60674 whole entry) above

By IC50 is commonly meant the point on the concentration scale where inhibition reaches its midpoint. Usually logD stands for lipophilicity at a set pH, counting ionised and neutral species. Higher therefore signals a more lipophilic compound. The solubility (thermodynamic) is solubility found after equilibrating the solid with the medium. As to `COC[C@@H](C)OC(=O)Cc1ccc(Nc2cc(Nc3ccccc3OC)c(C(N)=O)cn2)nc1`, the IC50 is 5 nM in data set [1]; 4 nM in [2]; 131 nM on JAK3/JAK1 [3]; 45 nM at JAK2/JAK1; 14800 nM against JAK3/JAK1 [4]; below 100 nM in data set [8]. The logD in [5] was 3.3. Besides, the thermodynamic solubility in data set [6] is above 18 mg/mL. In [7], the Drug uptake stood at 0.223 µM. In addition, in data set [9], the t1/2 is on record as below 20 min.

Source of the values: ChEMBL document CHEMBL5370660, “Design of a Supersoft Topical JAK Inhibitor, Which Is Effective in Human Skin but Rapidly Deactivated in Blood” (J Med Chem, 2023).
